“Also recorded” adds a separate entry of the source. Like-named read-outs stand apart in the source and are kept apart here.
What was measured:
[1] = test system: dopaminergic neuronal cell death in mouse PD model, nigral neurons, SH-SY5Y cells; conditions: cited from earlier work
[2] = cited from earlier work
[3] = test system: ROS formation in Neuro2a cells treated with paraquat (PQ); experiment: ROS level analysis in PQ-treated cells; format: cell-based; conditions: for Decrease of ROS formation in PQ-treated cells: added 1 h before PQ (500 µM, 1 h); for Effect on ROS formation in PQ-treated cells: added 1 h before PQ (500 µM)
Procedure: […] Then, 6-OHDA at a concentration of 50 µM was added in each well, and cells were incubated for 30 min. In other experiments, cells were incubated with PQ at a concentration of 500 µM for 30 min and 1 h. Cells incubated without 6-OHDA/PQ and compounds, and with 6-OHDA/PQ only, were used as positive and negative controls, respectively. To study ROS formation, 20 µL of 2,7-dichlorodihydrofluorescein diacetate solution (Molecular Probes, Eugene, OR, USA) was added to each well, such that the final concentration was […], and the microplate was incubated for an additional 10 min at 37 °C. The intensity of dichlorofluorescein fluorescence was measured with plate reader PHERAstar FS (BMG Labtech, Ortenberg, Germany) at λex = 485 nm, and λem = 518 nm. The data were processed by MARS Data Analysis v. 3.01R2 (BMG Labtech, Ortenberg, Germany). The results were presented as a percentage of positive control data.

[4] = Cell viability (cytotoxicity) assay, MTT; format: cell-based; conditions: mouse, Neuro2a neuroblastoma cells; Neuro2a cells, 24 h, MTT
Procedure: (§1) The neuroblastoma cell line Neuro2a was purchased from ATCC. Cells were cultured in DMEM medium containing 10% fetal bovine serum (Biolot, St. Petersburg, Russia) and 1% penicillin/streptomycin (Invitrogen, Carlsbad, CA, USA). Cells were incubated at 37 °C in a humidified atmosphere containing 5% (v/v) CO2.
(§2) Cell suspension (1 × 10^3 cells/well) was incubated with different concentration of compounds for 24 h. After that, cell viability was determined using the MTT (3-(4,5-dimethylthiazol-2-yl)-2,5- diphenyltetrazolium bromide) method, according to the manufacturer’s instructions (Sigma-Aldrich, St. Louis, MO, USA). The results were presented as percent of control data, and concentration required for 50% inhibition of cell viability (IC50) was calculated.

[5] = test system: A 549 tumor cells; conditions: read-out: Cytotoxic activity IC50; cited from earlier work
[6] = test system: ROS formation in Neuro2a cells treated with 6-OHDA; experiment: ROS level analysis in 6-OHDA-treated cells; format: cell-based; conditions: for Reduction of ROS level in 6-OHDA-treated cells / Effect on ROS formation in 6-OHDA-treated cells: 10 µM, 6-OHDA 50 µM, 30 min
Procedure: Cell suspensions (1 × 10^3 cells/well) were incubated with compound solutions (10 µM) for 1 h. Then, 6-OHDA at a concentration of 50 µM was added in each well, and cells were incubated for 30 min. In other experiments, cells were incubated with PQ at a concentration of 500 µM for 30 min and 1 h. Cells incubated without 6-OHDA/PQ and compounds, and with 6-OHDA/PQ only, were used as positive and negative controls, respectively. To study ROS formation, 20 µL of 2,7-dichlorodihydrofluorescein diacetate solution (Molecular Probes, Eugene, OR, USA) was added to each well, such that the final concentration was […], and the microplate was incubated for an additional 10 min at 37 °C. The intensity of dichlorofluorescein fluorescence was measured with plate reader PHERAstar FS (BMG Labtech, Ortenberg, Germany) at λex = 485 nm, and λem = 518 nm. The data were processed by MARS Data Analysis v. 3.01R2 (BMG Labtech, Ortenberg, Germany). The results were presented as a percentage of positive control data.

[7] = test system: Neuro2a cells treated with 6-OHDA; experiment: 6-Hydroxydopamine-induced in vitro model of Parkinson's disease, cell viability (MTT); format: cell-based; conditions: for Neuroprotective effect in 6-OHDA model at tenfold reduced concentration: 1 µM (concentration reduced tenfold); for Effect on 6-OHDA-treated cell viability: 10 µM
Procedure: The neuroprotective activities of compounds in 6-hydroxydopamine-induced cell model of Parkinson’s disease were examined, as described previously.
Neuroblastoma Neuro2a line cells (1 × 10^3 cells/well) were treated with 50 µM of 6-hydroxydopamine (Sigma-Aldrich, St. Louis, MO, USA) for 1 h and, after that, the investigated compounds were added to the neuroblastoma cell suspension at a concentration of 1 and 10 µM. In the other case, the substances were added to the cells 1 h before the addition of the neurotoxin. Cells incubated without 6-OHDA and compounds, and with 6-OHDA only, were used as positive and negative controls, respectively. After 24 h, viability of cells was measured using the MTT method. The results were presented as a percent of positive control data.

[8] = DPPH radical scavenger assay (cell-free); conditions: for DPPH radicals scavenged: 100 µM
Procedure: DPPH radical scavenging activity of compounds was tested as described.
Compounds were dissolved in MeOH, and the solutions (160 µL) were dispensed into wells of a 96-well microplate. In all, 40 µL of the DPPH (Sigma-Aldrich, Steinheim, Germany) solution in MeOH (1.5 × 10^−4 M) was added to each well. Concentrations of compounds in mixture were 10 and 100 µM. The mixture was shaken and left to stand for 30 min, and the absorbance of the resulting solution was measured at 520 nm with a microplate reader MultiscanFC (ThermoScientific, Waltham, MA, USA). Radical scavenging activity of all compounds at 100 µM were presented as percent of MeOH data, and the concentration of DPPH radical scavenging at 50% (EC50) was calculated for some compounds.

[9] = test system: KB tumor cells; conditions: read-out: Cytotoxic activity IC50; cited from earlier work
[10] = test system: P-388 tumor cells; conditions: read-out: Cytotoxic activity IC50; cited from earlier work
[11] = test system: A-549 tumor cells; conditions: read-out: Cytotoxic activity IC50; cited from earlier work
[12] = test system: Neuro2a cells treated with PQ; experiment: Paraquat-induced in vitro model of Parkinson's disease, cell viability (MTT); format: cell-based; conditions: added 1 h before PQ (500 µM)
Procedure: Neuroblastoma Neuro2a line cells (1 × 10^3 cells/well) were treated with compounds at concentrations of 1 and 10 µM for 1 h, and then 500 µM of paraquat (Sigma-Aldrich, St. Louis, MO, USA) was added to the neuroblastoma cell suspension. Cells incubated without paraquat and compounds, and with paraquat only, were used as positive and negative controls, respectively. The viability of cells was measured after 24 h using the MTT method. The results were presented as percent of positive control data.

[13] = test system: HL-60 tumor cells; conditions: read-out: Cytotoxic activity IC50; cited from earlier work
[14] = test system: neuroblastoma Neuro2a cells; experiment: Cell viability (cytotoxicity) assay, MTT; format: cell-based; conditions: up to 100 µM
Procedure: as §1, §2

[15] = test system: Candida albicans; conditions: cited from earlier work
[16] = test system: osteoclast differentiation; conditions: cited from earlier work
[17] = cited from earlier work; remark: listed apart in the source
[18] = test system: MPTP-treated neuroblastoma cells; conditions: cited from earlier work
[19] = test system: PC12 cells; conditions: pre-treating for 3 h; cited from earlier work
[20] = test system: PC12 cells; conditions: cited from earlier work
[21] = read-out: DPPH scavenger activity IC50
[22] = compound added 1 h before 6-OHDA
[23] = compound added 1 h after 6-OHDA

Compound: COC(=O)[C@]12Oc3ccc(-c4ccc5c(c4O)C(=O)C4=C(O)C[C@@H](C)[C@H](O)[C@@]4(C(=O)OC)O5)c(O)c3C(=O)C1=C(O)C[C@@H](C)[C@@H]2O [Secalonic acid A]
- Protection against MPTP-induced dopaminergic neuronal cell death [1]: protected

Compound: CN1C(=O)[C@]23CC4=CC=C[C@H](O)[C@H]4N2C(=O)[C@@]1(CO)SS3 [Gliotoxin]
- IC50 [2, 21]: 5.2 µM

Compound: COc1c(-c2ccccc2)cc(OC)c2c1oc1cc(O)c(O)cc12 [Compound 5, 4″-dehydroxycandidusin A]
- Decrease of ROS formation in PQ-treated cells ([3]; 1 µM): 19%
- Decrease of ROS formation in PQ-treated cells ([3]; 10 µM): 40%
- IC50 at 24 h [4]: 78.9 ± 1.9 µM
- IC50 [5]: 34 µM
- Reduction of ROS level in 6-OHDA-treated cells [6]: 34%
- Neuroprotective effect in 6-OHDA model at tenfold reduced concentration [7]: neuroprotective effect was not preserved
- DPPH radicals scavenged [8]: 49%
- EC50 ([8]; concentration of DPPH radical scavenging at 50%): 101 ± 2.8 µM
- IC50 [9]: 22.7 µM

Compound: cryptoechinulin D
- IC50 [2, 21]: 23.6 µM

Compound: COc1c(-c2ccc(O)cc2)cc(OC)c2c1oc1cc(O)c(O)cc12 [Compound 4, candidusin A]
- IC50 [10]: 46.8 µM
- Decrease of ROS formation in PQ-treated cells ([3]; 10 µM): 27%
- IC50 at 24 h [4]: 75.7 ± 5.6 µM
- Effect on ROS formation in 6-OHDA-treated cells [6]: did not have any effect
- Effect on 6-OHDA-treated cell viability [7, 22]: had no effect
- IC50 [11]: 19.3 µM
- DPPH radicals scavenged [8]: 32%
- Effect on viability of PQ-treated cells [12]: did not have any effect
- IC50 [13]: 77.6 µM

Compound: CN1C(=O)C(Cc2c(O)cccc2O)NC(=O)C1Cc1ccccc1 (stereo not drawn) [Compound 6, mactanamide]
- Decrease of ROS formation in PQ-treated cells ([3]; 1 µM): 32%
- Decrease of ROS formation in PQ-treated cells ([3]; 10 µM): 37%
- Cytotoxicity against Neuro2a cells [14]: not cytotoxic; also recorded: non-cytotoxic
- IC50 at 24 h [4]: > 100 µM
- Reduction of ROS level in 6-OHDA-treated cells [6]: 30%
- Neuroprotective effect in 6-OHDA model at tenfold reduced concentration [7]: neuroprotective effect was preserved
- Activity against Candida albicans [15]: fungistatic activity
- DPPH radicals scavenged [8]: 15%
- Effect on viability of PQ-treated cells [12]: did not show any neuroprotective activity
- Influence on osteoclast differentiation [16]: influence on osteoclast differentiation without any cytotoxicity

Compound: C[n+]1ccc(-c2cc[n+](C)cc2)cc1 [PQ, paraquat]
- Increase of ROS levels in Neuro2a cells by the neurotoxin ([3]; 1 h after adding to the cell suspension): 39%
- Effect on ROS formation in Neuro2a cells ([3]; after 30 min): insignificant

Compound: COc1cc(O)c(C)c2c1COC(C)C2 (stereo not drawn) [Compound 3, 8-methoxy-3,5-dimethylisochroman-6-ol]
- Effect on ROS formation in PQ-treated cells [3]: reduced ROS formation
- Cytotoxicity against Neuro2a cells [14]: not cytotoxic; also recorded: non-cytotoxic
- IC50 at 24 h [4]: > 100 µM
- DPPH Radical Scavenging % at 100 µM [17]: 62.0 ± 4.6 [16] %
- Reduction of ROS level in 6-OHDA-treated cells [6]: 45%
- Effect on viability of PQ-treated cells [12]: did not exhibit any protective effect

Compound: COc1ccc2[nH]cc(CCNC(C)=O)c2c1 [Compound 1a, Melatonin, reference compound]
- Decrease of ROS formation in PQ-treated cells ([3]; 10 µM): 22%
- Effect on ROS formation in 6-OHDA-treated cells [6]: decreased ROS formation in the 6-OHDA-treated neuronal cell stronger in comparison with 1
- Caspase-3 enzyme activity, DNA fragmentation factor 45 cleavage and DNA fragmentation [18]: diminished
- Effect on 6-OHDA-treated cell viability [7, 23]: did not increase the viability
- Effect on 6-OHDA-treated cell viability [7, 22]: did not increase the viability; also recorded: ineffective
- Viability of PC12 cells in 6-OHDA-induced PD model [19]: increased viability of the cells, and prevented apoptosis

Compound: CC(=O)NCC(=O)c1c[nH]c2cc(O)ccc12 [Compound 1, 6-hydroxy-N-acetyl-β-oxotryptamine]
- Decrease of ROS formation in PQ-treated cells ([3]; 10 µM): 35%
- Cytotoxicity against Neuro2a cells [14]: not cytotoxic; also recorded: non-cytotoxic
- IC50 at 24 h [4]: > 100 µM
- Reduction of ROS level in 6-OHDA-treated cells [6]: 18%
- DPPH radicals scavenged [8]: 48%

Compound: OCc1cc(O)c(Cc2cc(O)ccc2O)c(Cl)c1O [Terrestrol G]
- IC50 ([2]; read-out: DPPH-scavenging IC50): 4.1 µM

Compound: neoechinulin E
- IC50 [2, 21]: 46 µM

Compound: Cc1cc(O)c(C)c(O)c1C(=O)O [Compound 2, 3-methylorsellinic acid]
- Effect on ROS formation in PQ-treated cells [3]: reduced ROS formation
- Cytotoxicity against Neuro2a cells [14]: not cytotoxic; also recorded: non-cytotoxic
- IC50 at 24 h [4]: > 100 µM
- Reduction of ROS level in 6-OHDA-treated cells [6]: 30%
- Effect on 6-OHDA-treated cell viability [7, 23]: no neuroprotective effect
- DPPH radicals scavenged [8]: 10%
- Effect on viability of PQ-treated cells [12]: did not exhibit any protective effect

Compound: NCCc1cc(O)c(O)cc1O [6-OHDA, 6-hydroxydopamine, reference compound]
- Increase of ROS level in Neuro2a cells by the neurotoxin ([6]; 30 min after addition to the cell suspension): 30%

Compound: COc1c(-c2ccc(O)c(O)c2)cc(OC)c2c1oc1cc(O)c(O)cc12 [Candidusin B, reference compound]
- DPPH radical scavenging ([2]; 100 µg/mL): 59%

Compound: C[C@H]1CO[C@]2(C)Oc3cc(O)c4c(c3C[C@H]12)O[C@@]1(C)OC[C@H](C)[C@H]1C4 [Xyloketal B]
- Free radical scavenging in DPPH assay [2]: scavenged free radicals
- Protection of PC12 cells against ischemia-induced cell injury and MPTP-induced neurotoxicity [20]: protected

— PMC6265791, “Neuroprotective Activity of Some Marine Fungal Metabolites in the 6-Hydroxydopamin- and Paraquat-Induced Parkinson’s Disease Models” (Marine Drugs, 2018)
